Here are results for four molecules from article PMC12535377, “Synaptic and intrinsic plasticity mediated by CCK-type signaling coordinates behavioral changes during motivational state shifts” (Cell reports, 2025).

For experiment [1], the system named is CBI-2-elicited feeding motor programs. Kind of experiment: CBI-2-elicited feeding motor programs in isolated cerebral and buccal ganglia. Particulars: for Protraction duration of CBI-2 programs: 10^-6 M and 10^-5 M tested; for B8 activity (frequency) during retraction: CBI-2 programs, 10^-6 M and 10^-5 M; for Feeding program effect, summary grade: Table S1 summary in words. Details: species or system Aplysia californica. As for the experimental part: To explore the neural basis of the behavioral effects of apCCKs, we examined their modulation of feeding-motor programs in isolated ganglia. All eight forms of apCCKs were tested on programs induced by CBI-2, a command-like interneuron that is active during food-elicited feeding behavior[56] and provides potent excitatory inputs to buccal central pattern generator (CPG) interneurons,[54],[77] orchestrating ingestive motor programs (Figure S23A). Stable single-cycle motor programs were evoked by stimulating CBI-2 at 8–10 Hz throughout the protraction phase with a 90-s intertrial interval. Two concentrations, 10^−6 M and 10^−5 M, of apCCKs were tested.
Intracellular and extracellular recordings were made as described previously.[57]–[59],[61],[151] To prevent movements of ganglia caused by myoactive apCCK (especially [sY8]-apCCK1 and [sY6, sY8]-apCCK1) during bath application, we treated the ganglia with 0.8% protease IX for 1–2 min prior to desheathing. Subsequently, ganglia were desheathed, transferred to a recording chamber containing ~1.5 mL of ASW (460 mM NaCl, 10 mM KCl, 11mM CaCl2, 55 mM MgCl2, and 10 mM HEPES, pH 7.6), continuously perfused at 0.3 mL/min, and maintained at 14°C–17°C. The experiments examining the effects of apCCKs on excitability of B20/B34/B61/62/B65/B64 neurons were performed in a high divalent saline (368 mM NaCl, 8 mM KCl, 13.8 mM CaCl2, 115 mM MgCl2, and 10 mM HEPES, pH 7.6), which increases the spiking threshold of neurons and therefore curtails polysynaptic influences. Intracellular recordings were obtained using 5–10 MΩ sharp microelectrodes filled with an electrolyte (0.6 M K2SO4 plus 60 mM KCl). Extracellular recordings were acquired from polyethylene suction electrodes. Grass S88 and WPI Pulsemaster A300 stimulators were used to provide timing signals for intracellular and extracellular stimulation. To determine the effects of various forms of apCCKs on Aplysia feeding programs, we performed experiments with the cerebral and buccal ganglia. Freshly made apCCK solution in ASW was perfused into the recording chamber. Feeding-motor programs were elicited by stimulation of command-like neuron CBI-2 at 8–10 Hz or stimulation of the EN at 2 Hz, 3 ms, 15 V, and were monitored by bursting activity of the I2 nerve of the buccal ganglion.[58],[59],[61] Typically, we recorded from motor neuron B8, and one interneuron, e.g., B40 or B20. To determine effects of apCCKs on synaptic strength, we stimulated presynaptic neuron, CBI-2, B34 (plus 1 nA current) or B65 at 10 Hz for 2 s for several trials and waited 1 min between each trial. The stimulation duration for each trial was set at 2 s because this allows the expression of synaptic facilitation without evoking too many spikes. Typically, the amplitude of the last EPSP at each concentration of peptides was quantified unless otherwise stated.

Experiment [2] deals with Aplysia californica. The experiment can be described thus: Feeding behavior (food intake) in intact animals after peptide injection. Type of experiment: in vivo. The settings on record: for Behavioral effect (food intake), summary grade: Table S1 summary in words; for Food intake (seaweed consumed in a single meal): injection into hemocoel of apCCK solutions (10^-7 M or 10^-6 M) vs ASW, food-deprived animals. The source says:
To explore the role of apCCKs as satiety signals in mollusks, we examined their effects on food intake. […] The remaining four forms had no impact (Figure S9). Moreover, [sY6, sY8]-apCCK1 slowed food consumption (Figure 2E), which could stem, in part, from a shift from ingestive to egestive patterns as the meal progressed. [sY6, sY8]-apCCK1 also extended the duration to consume one strip of seaweed compared to controls (Figure 2F), further mimicking natural satiety.
Behavioral experiments were conducted in two batches, each using animals from separate shipments. In the first batch (Figure 2), animals were larger, with an average body weight of 93.3 ± 4.8 g, and were food-deprived for 7 days prior to testing. In the second batch (Figure S9), animals were smaller (average weight: 70.6 ± 4.0 g) and were food-deprived for 5 days to account for their reduced size. In each experiment, two weight-matched animals were housed in separate round net cages (17 cm diameter and 17 cm height) that were placed in a 500 L tank filled with circulating aerated ASW (14°C–16°C). To ensure that the animals were responsive to food, they were first pretested with a small piece of seaweed. After this pretest, in each pair, one animal was injected (into the hemocoel using a syringe needle) with apCCKs freshly dissolved in 1.5 mL ASW, whereas the other was injected with 1.5 mL of ASW. Three minutes later, the feeding session commenced. Animals were hand-fed seaweed (Shirako, Tokyo, Japan) cut in 1 × 10 cm strips, weighing ~0.1 g, increasing 10-fold when hydrated. This hand-feeding approach has been used in prior study of Aplysia feeding behavior.[146],[147] The consumed seaweed amount was converted to hydrated weight and normalized to the animal’s body weight. Each strip of seaweed was delivered to the mouth area with forceps. Feeding was terminated after 1 h or when animals stopped ingesting seaweed for 3 min.

Non-standard residues stand in square brackets, D forms with d. Residues, ends and D or L forms follow the SMILES beside them. sY = N[C@@H](Cc1ccc(OS(=O)(=O)O)cc1)C(=O)O

Take `CC[C@H](C)[C@H](NC(=O)CNC(=O)[C@H](Cc1ccc(OS(=O)(=O)O)cc1)NC(=O)[C@H](CC(=O)O)NC(=O)CNC(=O)[C@H](Cc1ccc(OS(=O)(=O)O)cc1)NC(=O)[C@@H](N)CO)C(=O)NCC(=O)NCC(=O)NCC(=O)N[C@@H](CCCNC(=N)N)C(=O)N[C@@H](Cc1ccccc1)C(N)=O` [[sY2, sY5]-apCCK2] (H-S[sY]GD[sY]GIGGGRF-NH2): in experiment [1], the “Protraction duration of CBI-2 programs” value was “shortened”; the “B8 activity (frequency) during retraction” value is on record as “reduced”; the “Feeding program effect, summary grade” value is reported as “Weak”. For the same molecule, in experiment [2], the “Behavioral effect (food intake), summary grade” value (from here on “Behavioral effect (food intake)”) is on record as “Weak” and the “Food intake (seaweed consumed in a single meal)” value was “significant but weaker effects”.
On to `CC[C@H](C)[C@H](NC(=O)CNC(=O)[C@H](Cc1ccc(O)cc1)NC(=O)[C@H](CC(=O)O)NC(=O)CNC(=O)[C@H](Cc1ccc(OS(=O)(=O)O)cc1)NC(=O)[C@@H](N)CO)C(=O)NCC(=O)NCC(=O)NCC(=O)N[C@@H](CCCNC(=N)N)C(=O)N[C@@H](Cc1ccccc1)C(N)=O` [[sY2]-apCCK2] (H-S[sY]GDYGIGGGRF-NH2), for which, in experiment [1], the “Feeding program effect, summary grade” value was “No effect”. Besides, in experiment [2], the “Behavioral effect (food intake)” value is “No effect” and the “Food intake (seaweed consumed in a single meal)” value was “did not influence feeding”.
Turning to `CC[C@H](C)[C@H](NC(=O)CNC(=O)[C@H](Cc1ccc(OS(=O)(=O)O)cc1)NC(=O)[C@H](CC(=O)O)NC(=O)CNC(=O)[C@H](Cc1ccc(O)cc1)NC(=O)[C@@H](N)CO)C(=O)NCC(=O)NCC(=O)NCC(=O)N[C@@H](CCCNC(=N)N)C(=O)N[C@@H](Cc1ccccc1)C(N)=O` [[sY5]-apCCK2] (H-SYGD[sY]GIGGGRF-NH2), in experiment [1], the “Protraction duration of CBI-2 programs” value was “shortened”; the “B8 activity (frequency) during retraction” value is “reduced”; the “Feeding program effect, summary grade” value is recorded as “Moderate”. Further, in experiment [2], the “Behavioral effect (food intake)” value is “Moderate” and the “Food intake (seaweed consumed in a single meal)” value is reported as “significant but weaker effects”.
Take H-SYGDYGIGGGRF-NH2 [apCCK2]: in experiment [1], the “Feeding program effect, summary grade” value is “No effect”. Moreover, in experiment [2], the “Behavioral effect (food intake)” value is “No effect” and the “Food intake (seaweed consumed in a single meal)” value is given as “did not influence feeding”.
